These results are taken from patent US10316371B2, “Screening methods for identifying specific Staphylococcus aureus inhibitors” (TRANA DISCOVERY, INC., priority 2011, dated 2019).

In general, CC50 refers to the concentration at which the toxic effect on the cells reaches its halfway point. A word on the MIC: it is the smallest concentration in the dilution series that meets the test's criterion for growth inhibition. A word on the IC50: it is the concentration that gives 50% inhibition.

One series in a line: Mammalian Cell Toxicity. Particulars: mouse, 3T3 cells. Type of series: cell-based.
The next series has as its system K. pneumoniae 700603. The series is described as follows: MIC. Type of series: cell-based. Particulars: Klebsiella pneumoniae; K. pneumoniae 700603; read-out: MIC.
The subject of series [1] is SA 33591 (Staphylococcus aureus, Methicillin Resistant (ATCC 33591)). As to the kind of experiment: MIC. Type of series: cell-based. Particulars: ATCC33591, SA 33591, read-out: MIC. As to the method: (§1) The strains included Staphylococcus aureus, Methicillin Resistant (ATCC 33591), Methicillin-Resistant Staphylococcus aureus USA300, Staphylococcus aureus 158, Staphylococcus aureus 22, Staphylococcus aureus 2, Staphylococcus aureus (ATCC 29213), and Staphylococcus aureus 182.
(§2) A series of compounds were evaluated for their activity against drug resistant S. aureus, including MSSA and MRSA strains.

In series [2] the test system is SA USA 300 (Methicillin-Resistant Staphylococcus aureus USA300). As to the kind of experiment: MIC. The series is classed as cell-based. Particulars: SA USA 300, read-out: MIC. As to the method:
as §1, §2

The test system of series [3] is SA 2 (Staphylococcus aureus 2). As to the kind of experiment: MIC. Type of series: cell-based. Particulars: SA 2, read-out: MIC. As to the method:
as §1, §2

Series [4] has as its system SA 182 (Staphylococcus aureus 182). As to the kind of experiment: MIC. Type of series: cell-based. Particulars: SA 182, read-out: MIC. As to the method:
as §1, §2

The subject of series [5] is SA 22 (Staphylococcus aureus 22). The series is described as follows: MIC. Type of series: cell-based. Particulars: SA 22, read-out: MIC. As to the method:
as §1, §2

Series [6] has as its system SA 29213 (Staphylococcus aureus (ATCC 29213)). The series is described as follows: MIC. The series is classed as cell-based. Particulars: ATCC29213, SA 29213, read-out: MIC. The protocol: as §1, §2
The subject of series [7] is SA 158 (Staphylococcus aureus 158). The series is described as follows: MIC. The series is classed as cell-based. Particulars: SA 158, read-out: MIC. As to the method: as §1, §2
The test system of series [8] is S. aureus specific Arg ASL (anticodon stem loop) RNA oligomer interaction with programmed ribosomes. As to the kind of experiment: Fluorescence polarization assay of Arg ASL / programmed ribosome complex (HTS and dose response). The series is classed as binding, S. aureus Arg ASL; E. coli 70S ribosomes. Particulars: 6 pt dose response, fluorescence polarization after 4 hours at 25° C., corrected for auto-fluorescence; read-out: IC50. A general note: In fluorescence polarisation assays a small probe gives low polarisation when free and higher when bound to something large.

The next series deals with K. pneumoniae UMM. As to the kind of experiment: MIC. Type of series: cell-based. Particulars: Klebsiella pneumoniae; K. pneumoniae UMM; read-out: MIC.

≈ marks a conversion by molar mass, not a printed value. Where only a bound is given, the exact number is not on record here.

The molecule `Cc1ccc2nc(-c3ccc(NC(=O)CN4CCN(CCO)CC4)cc3)sc2c1` [Compound #169, 2-[4-(2-hydroxyethyl)-1-piperazinyl]-N-[4-(6-methyl-1,3-benzothiazol-2-yl)phenyl]acetamide] showed a 50% cytotoxic concentration (CC50) in the series “Mammalian Cell Toxicity” of less than 2 µg/mL. Also, the MIC in the series with K. pneumoniae 700603 is more than 128 µg/mL; in [1] it was 32 µg/mL (≈ 77.9 µM); in [2] it was 8 µg/mL (≈ 19.5 µM); in series [3], 8 µg/mL (≈ 19.5 µM); in [4], 16 µg/mL (≈ 39 µM); in series [5] it was 16 µg/mL (≈ 39 µM). Besides, the MIC was 16 µg/mL (≈ 39 µM) in series [6], 128 µg/mL (≈ 312 µM) in series [7] and more than 128 µg/mL with K. pneumoniae UMM. In addition, the half-inhibitory concentration (IC50) in [8] was 69.3 µM.

In the series “Mammalian Cell Toxicity”, `Brc1ccc(-c2nc(N3CCNCC3)c3ccccc3n2)cc1` [Compound #880, 2-(4-bromophenyl)-4-(1-piperazinyl)-quinazoline] returned a CC50 of 2.11 µg/mL (≈ 5.71 µM). Also, the MIC is more than 128 µg/mL with K. pneumoniae 700603; 8 µg/mL (≈ 21.7 µM) in series [1]; 8 µg/mL (≈ 21.7 µM) in series [2]; 4 µg/mL (≈ 10.8 µM) in [3]; 8 µg/mL (≈ 21.7 µM) in [4]; 8 µg/mL (≈ 21.7 µM) in series [5]. Also, the minimum inhibitory concentration (MIC) in series [6] is 8 µg/mL (≈ 21.7 µM); in series [7], 8 µg/mL (≈ 21.7 µM); in the series on K. pneumoniae UMM, more than 128 µg/mL. Moreover, the half-maximal inhibitory concentration (IC50) in [8] amounted to 19.9 µM.
